Data on 22 compounds can be found in PMC7587356, “High-Throughput Screening for Inhibitors of the SARS-CoV-2 Protease Using a FRET-Biosensor” (Molecules, 2020).

Like-named read-outs stand apart in the source and are kept apart here.

This assay addresses SARS-CoV-2 3CLpro (Severe acute respiratory syndrome coronavirus 2, UniProt P0DTD1). The experiment in a line: biochemical. Particulars: for mean / Replicate_1 / Replicate_2 / mean (LOPAC screen with protease) / Replicate_1 (LOPAC screen with protease) / Replicate_2 (LOPAC screen with protease): sheet LOPAC_screen_w_protease; for mean (LOPAC screen with protease) / Replicate_1 (LOPAC screen with protease) / Replicate_2 (LOPAC screen with protease): primary screen at 5 µM. Also noted: Replicate_1 / Replicate_2 / mean / mean (LOPAC_screen_w_protease): unit not given here. Type of assay: biochemical.

Setting [1] is: primary screen with protease, 5 µM, mean of two replicates.
Where [2] appears, read: primary screen with protease, 5 µM, replicate 1.
Where [3] appears, read: primary screen with protease, 5 µM, replicate 2.
The mark [4] stands for this setting: LOPAC1280 primary screen with protease, 5 µM compound, mean of the two replicates.
The mark [5] stands for this setting: LOPAC1280 primary screen with protease, 5 µM compound, replicate 1.
Setting [6] is: LOPAC1280 primary screen with protease, 5 µM compound, replicate 2.
[7] abbreviates: primary screen with protease, mean of two replicates.
The mark [8] stands for this setting: primary screen with protease, replicate 1.
Where [9] appears, read: primary screen with protease, compound at 5 µM, mean of two replicates.
The mark [10] stands for this setting: primary screen with protease, compound at 5 µM, replicate 1.
The mark [11] stands for this setting: primary screen with protease, compound at 5 µM, replicate 2.
Setting [12] is: LOPAC1280 primary screen at 5 µM, with protease, mean of the two replicates.
Where [13] appears, read: LOPAC1280 primary screen at 5 µM, with protease, replicate 1.
The mark [14] stands for this setting: LOPAC1280 primary screen at 5 µM, with protease, replicate 2.

`Cl.Nc1cc(Cl)c(N=C2NCCN2)c(Cl)c1` [p-Aminoclonidine hydrochloride]: the mean under setting [1] is listed as 0.1922. Moreover, under setting [2], the Replicate_1 is reported as 0.5913. The same compound displayed a Replicate_2 under setting [3] of -0.207.

As to `O=C1C=CC(=O)C=C1` [p-Benzoquinone], the “mean (LOPAC_screen_w_protease)” value under setting [4] was 2.118. Besides, the “Replicate_1 (LOPAC_screen_w_protease)” value under setting [5] was 1.8862. For the same compound, the “Replicate_2 (LOPAC_screen_w_protease)” value under setting [6] was 2.35.

For `N[C@@H](Cc1ccc(F)cc1)C(=O)O` [p-Fluoro-L-phenylalanine], the “mean (LOPAC_screen_w_protease)” value under setting [4] came out at 2.051. Also, the “Replicate_1 (LOPAC_screen_w_protease)” value under setting [5] came to 4.147. Also, under setting [6], the “Replicate_2 (LOPAC_screen_w_protease)” value was -0.04537.

`Cl.Clc1cc(I)cc(Cl)c1NC1=NCCN1` [p-Iodoclonidine hydrochloride] displayed a mean under setting [7] of 2.258. The Replicate_1 under setting [8] is 3.3723. This compound also returned a Replicate_2 (primary screen with protease, replicate 2) of 1.143.

In the case of `COc1ccccc1N1CCN(CCN(C(=O)c2ccc(F)cc2)c2ccccn2)CC1.Cl.Cl` [p-MPPF dihydrochloride], where the note is “mean of two replicates”, the “mean (LOPAC screen with protease)” value was determined as 7.242. The “Replicate_1 (LOPAC screen with protease)” value (replicate 1) was determined as 5.881. For the same compound, the “Replicate_2 (LOPAC screen with protease)” value (replicate 2) is 8.603.

`COc1ccccc1N1CCN(CCN(C(=O)c2ccc(I)cc2)c2ccccn2)CC1.Cl` [p-MPPI hydrochloride] came in with a mean under setting [9] of 3.1199. Under setting [10], this compound gave a Replicate_1 of 5.19. The Replicate_2 under setting [11] turned out to be 1.05.

Broadly, the inhibition is how much of the control response was suppressed. As to `O=c1c(O)c(-c2ccc(O)c(O)c2)oc2cc(O)cc(O)c12` [quercetin, reference compound], where the note is “read-out: inhibition of 3CLpro in the primary screen”, the inhibition at 5 µM amounted to 1.9%.

Consider (+)-Catechin Hydrate, for which the “mean (LOPAC screen with protease)” value (mean of two replicates) came to 22.7149. The “Replicate_1 (LOPAC screen with protease)” value (replicate 1) is 22.57. Further, where the note is “replicate 2”, the “Replicate_2 (LOPAC screen with protease)” value is 22.8597.

Where the note is “LOPAC1280 at 5 µM, mean of two replicates”, (+)-Cyclazocine gave a mean of 1.031. Under “LOPAC1280 at 5 µM, replicate 1”, this compound registered a Replicate_1 of 2.203. Besides, for the setting “LOPAC1280 at 5 µM, replicate 2”, the Replicate_2 is -0.1419.

(-)-3-Methoxynaltrexone hydrochloride: under setting [4], the mean stood at 5.384. The compound also displayed a Replicate_1 under setting [5] of 4.034. Besides, the Replicate_2 under setting [6] was 6.735.

Consider Ceramide, for which the mean under setting [9] came to 2.999. Further, the Replicate_1 under setting [10] was determined as 2.718. Under setting [11], this compound registered a Replicate_2 of 3.28.

With Foliosidine, the mean (primary screen of LOPAC1280 at 5 µM with protease, mean of the two replicates) came out at 3.597. The compound also displayed a Replicate_2 (primary screen of LOPAC1280 at 5 µM with protease, replicate 2) of 2.375.

As to L-Methionine sulfoximine, the “Replicate_1 (LOPAC_screen_w_protease)” value was 2.433, the “Replicate_2 (LOPAC_screen_w_protease)” value stood at 0.2989 and the “mean (LOPAC_screen_w_protease)” value came out at 1.366.

The compound MDL 26,630 trihydrochloride had a mean under setting [4] of 6.178. Also, the Replicate_1 under setting [5] is reported as 5.659. This compound also registered a Replicate_2 under setting [6] of 6.697.

In turn, Oligomycin A displayed a mean under setting [4] of 6.143. The compound further returned a Replicate_1 under setting [5] of 3.7549. In addition, the Replicate_2 under setting [6] worked out at 8.531.

For the compound “Phenylbenzene-omega-phosphono-alpha-amino acid”, the mean under setting [12] was determined as 0.7227. The Replicate_1 under setting [13] stood at 0.6047. The compound further registered a Replicate_2 under setting [14] of 0.8406.

Picrotoxin yielded a mean under setting [4] of 4.15. The same compound showed a Replicate_1 under setting [5] of 3.321. For the same compound, under setting [6], the Replicate_2 was 4.978.

In the case of R(-)-SCH-12679 maleate, under setting [12], the mean is given as 0.5011. Under setting [13], this compound showed a Replicate_1 of 0.9263. The Replicate_2 under setting [14] stood at 0.07597.

Take Ro 8-4304: the mean under setting [1] came out at 0.161. The Replicate_1 under setting [2] is given as -1.418. For the same compound, under setting [3], the Replicate_2 amounted to 1.74.

S(-)-DS 121 hydrochloride returned a mean under setting [7] of 2.32. Under setting [8], this compound registered a Replicate_1 of 2.977.

In the case of S-Nitroso-N-acetylpenicillamine, the mean under setting [4] is on record as 5.369. The Replicate_1 under setting [5] was 5.411. Under setting [6], this compound returned a Replicate_2 of 5.326.

trans-(±)-ACPD: the “Replicate_1 (LOPAC_screen_w_protease)” value under setting [5] is 2.281. Moreover, the “Replicate_2 (LOPAC_screen_w_protease)” value under setting [6] was found to be 1.598.
